Target: T1, Human CaV2.2 channels (Homo sapiens, UniProt Q00975)
T1 construct: expressed in transfected cells; also stably expressing Kir2.3)
Assay: Fluorescent assay for CaV2.2 channels using potassium depolarization to induce channel opening (FLIPR, Fluo 4)
Type: cell-based
Settings: 3 μM test compound; 30 mM KCl alternative assay buffer (inactivated channel state); HEK293 cells; read-out: %-Inhib (CaV2.2) @3 μM @30 mM KCl
From the text: In the process, the Ca^2+ influx is quantified in the FLIPR assay with the aid of a Ca^2+-sensitive dye (type Fluo-4, Molecular Probes Europe BV, Leiden, the Netherlands) in a fluorescent imaging plate reader (FLIPR 3, Molecular Devices, Sunnyvale, USA), as described hereinafter.
2. Assay Descriptions and Biological Data: 2.1 Fluorescent Assay for CaV2.2 Channels Using Potassium Depolarization to Induce Channel Opening
Human CaV2.2 channels were stably expressed in HEK293 cells together with alpha2-delta and beta subunits of voltage gated calcium channels. In addition, an inwardly rectifying potassium channel (Kir2.3) was stably expressed in these cells to augment control of the cell membrane potential by the concentration of extracellular potassium ions. Raise of the extracellular potassium concentration leads to depolarization of the membrane potential and thus regulates the voltage dependent state of CaV2.2 channels. For preparation, cells were seeded in black poly-D-lysine coated 96-well plates (Becton Dickinson, Biocoat 4640) in 100 μL medium [500 mL DMEM/F-12 plus Glutamax (Invitrogen 31331-093) plus 5.5 mL MEM NEAA 100× (Invitrogen 11140-035) plus 50 mL FBS decomplemented (Invitrogen 10270-106) plus 200 μg/mL Geneticin (Invitrogen 10131-027) plus 50 μg/mL Hygromycin B (Invitrogen 10687-010) plus 2 μg/mL Blasticidin (anti-bl5b Invivo-Gen) plus 0.2 μg/mL Puromycin (A 11138-03)] at a cell density of 30.000 cells per well. Plates were incubated at 37° C. (5% CO2) for 20 to 23 h. On the day of experiment medium was discarded and cells were loaded with Fluo 4 by addition of 100 μL of basic assay buffer (10 mM HEPES, 1 mM KCl, 149 mM NaCl, 0.8 mM CaC2, 1.7 mM MgCl2, 10 mM Glucose, 0.1% BSA. pH 7.4) containing 2 μM Fluo 4 (Molecular Probes; F-14201), 0.01% pluronic acid (Molecular Probes; P-6866) and 2.5 mM probenecid (Molecular Probes; P36400). Cells were incubated in the dark at 25° C. for 60 min. Then dye containing buffer was discarded and 100 μL basic (1 mM KCl) or alternative (30 mM KCl) assay buffer was added. The alternative assay buffer contained altered concentrations of KCl (30 mM) and NaCl (120 mM) and was used in order to promote the inactivated channel state. After that 25 μL of basic or alternative assay buffer with or without test compound were added and cells were incubated again in the dark at 25° C. for 15 min. Fluorescence intensity was measured on a FLIPR 3 instrument (Molecular Devices Corp., Sunnyvale, Calif.) with excitation at 480 nm and emission at 535 nm. After continuously reading fluorescence for 30 sec, 50 μL of basic assay buffer containing 210 mM KCl (NaCl omitted) were added for depolarization. Peak fluorescent signal intensity was determined and the amplitude of the peak signal, normalized to base line, was used to measure channel inhibition by test compounds.

T1 sequence (Q00975 whole entry): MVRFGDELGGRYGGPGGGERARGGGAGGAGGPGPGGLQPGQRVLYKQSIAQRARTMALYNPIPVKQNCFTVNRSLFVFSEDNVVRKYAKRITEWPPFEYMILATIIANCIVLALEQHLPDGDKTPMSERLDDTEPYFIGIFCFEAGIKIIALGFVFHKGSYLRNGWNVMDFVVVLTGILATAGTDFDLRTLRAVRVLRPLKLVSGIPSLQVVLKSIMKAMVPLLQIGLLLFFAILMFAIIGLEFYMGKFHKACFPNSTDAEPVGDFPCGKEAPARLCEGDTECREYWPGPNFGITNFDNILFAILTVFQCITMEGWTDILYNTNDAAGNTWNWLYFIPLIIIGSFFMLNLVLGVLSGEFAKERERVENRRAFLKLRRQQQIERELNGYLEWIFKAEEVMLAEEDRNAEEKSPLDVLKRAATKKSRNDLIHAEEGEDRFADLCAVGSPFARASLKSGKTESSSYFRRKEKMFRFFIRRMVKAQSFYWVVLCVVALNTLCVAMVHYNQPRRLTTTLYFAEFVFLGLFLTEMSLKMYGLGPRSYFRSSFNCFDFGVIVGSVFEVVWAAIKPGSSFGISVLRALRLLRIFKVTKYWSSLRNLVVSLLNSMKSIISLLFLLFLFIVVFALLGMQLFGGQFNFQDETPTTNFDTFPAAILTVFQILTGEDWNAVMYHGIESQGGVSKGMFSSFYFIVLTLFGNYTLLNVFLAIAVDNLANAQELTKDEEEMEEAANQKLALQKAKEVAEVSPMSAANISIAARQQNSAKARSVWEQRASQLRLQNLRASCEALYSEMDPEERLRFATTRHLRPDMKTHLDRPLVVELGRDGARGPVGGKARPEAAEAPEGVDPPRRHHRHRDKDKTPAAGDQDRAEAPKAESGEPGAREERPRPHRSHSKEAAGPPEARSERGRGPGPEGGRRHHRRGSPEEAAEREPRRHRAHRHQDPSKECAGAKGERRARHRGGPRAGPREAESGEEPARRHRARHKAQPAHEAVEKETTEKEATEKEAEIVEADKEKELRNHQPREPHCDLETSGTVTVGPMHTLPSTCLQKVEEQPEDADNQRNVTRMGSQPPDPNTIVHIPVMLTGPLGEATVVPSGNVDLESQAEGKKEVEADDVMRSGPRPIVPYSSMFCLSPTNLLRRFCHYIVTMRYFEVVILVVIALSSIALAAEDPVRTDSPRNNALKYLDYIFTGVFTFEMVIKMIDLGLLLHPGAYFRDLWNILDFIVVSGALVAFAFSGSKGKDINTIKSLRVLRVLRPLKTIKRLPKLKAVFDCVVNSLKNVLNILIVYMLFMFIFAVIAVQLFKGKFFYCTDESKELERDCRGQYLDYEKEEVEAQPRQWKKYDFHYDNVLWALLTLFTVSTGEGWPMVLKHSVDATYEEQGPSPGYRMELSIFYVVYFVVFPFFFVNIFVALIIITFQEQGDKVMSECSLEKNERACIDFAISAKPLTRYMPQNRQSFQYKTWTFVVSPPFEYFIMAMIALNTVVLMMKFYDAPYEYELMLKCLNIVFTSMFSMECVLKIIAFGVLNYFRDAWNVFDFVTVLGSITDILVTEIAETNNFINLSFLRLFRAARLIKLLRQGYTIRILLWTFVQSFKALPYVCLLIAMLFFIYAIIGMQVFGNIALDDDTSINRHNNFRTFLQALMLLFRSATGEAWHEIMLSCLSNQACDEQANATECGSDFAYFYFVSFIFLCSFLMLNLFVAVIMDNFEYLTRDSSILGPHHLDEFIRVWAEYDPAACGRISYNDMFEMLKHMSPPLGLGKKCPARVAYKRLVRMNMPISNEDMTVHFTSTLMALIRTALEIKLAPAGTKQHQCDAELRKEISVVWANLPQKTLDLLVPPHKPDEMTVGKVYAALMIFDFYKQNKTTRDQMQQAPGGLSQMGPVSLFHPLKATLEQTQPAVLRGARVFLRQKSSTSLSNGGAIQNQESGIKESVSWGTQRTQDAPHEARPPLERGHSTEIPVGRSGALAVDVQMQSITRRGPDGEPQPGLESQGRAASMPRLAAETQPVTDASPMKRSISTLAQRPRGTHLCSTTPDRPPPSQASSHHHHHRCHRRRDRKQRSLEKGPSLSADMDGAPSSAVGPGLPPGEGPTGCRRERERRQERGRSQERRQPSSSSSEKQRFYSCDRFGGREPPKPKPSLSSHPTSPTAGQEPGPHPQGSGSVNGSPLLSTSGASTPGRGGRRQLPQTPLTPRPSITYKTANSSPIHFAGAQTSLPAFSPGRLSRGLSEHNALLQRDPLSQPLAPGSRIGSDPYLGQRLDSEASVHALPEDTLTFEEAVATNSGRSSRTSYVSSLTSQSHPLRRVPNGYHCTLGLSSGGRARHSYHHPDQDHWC

Structure (SMILES) | inhibition at 3 µM [%]
Cc1noc(C)c1-c1c(C)c(C(F)(F)F)n(Cc2ccccc2)c1C(=O)N(C)CC(C)(C)C [Example 16, 1-Benzyl-3-(3,5-dimethyl-isoxazol-4-yl)-N-(2,2-dimethyl-propyl)-N,4-dimethyl-5-(trifluoromethyl)-1H-pyrrole-2-carboxylic acid amide] | 75 to 95
Cc1c(-c2cnn(C)c2)c(C(=O)N(C)CC(C)(C)C)n(Cc2ccccc2)c1C(F)(F)F [Example 04, 1-Benzyl-N,4-dimethyl-3-(1-methyl-1H-pyrazol-4-yl)-N-neopentyl-5-(trifluoromethyl)-1H-pyrrole-2-carboxamide] | > 95
Cc1c(-c2ccc(Cl)s2)c(C(=O)N(C)CC(C)(C)C)n(Cc2ccccc2)c1C(F)(F)F [Example 13, 1-Benzyl-3-(5-chloro-thiophen-2-yl)-N-(2,2-dimethyl-propyl)-N,4-dimethyl-5-(trifluoromethyl)-1H-pyrrole-2-carboxylic acid amide] | 75 to 95
COc1ncc(-c2c(C)c(C(F)(F)F)n(Cc3ccccc3)c2C(=O)N2CCOCC2)cn1 [Example 14, [1-Benzyl-3-(2-methoxy-pyrimidin-5-yl)-4-methyl-5-(trifluoromethyl)-1H-pyrrol-2-yl]-morpholin-4-yl-methanone] | 40 to 75
Cc1c(-c2ncc(Cl)cn2)c(C(=O)N2CCNC(=O)C2)n(Cc2ccccc2)c1C(F)(F)F [Example 47, 4-[1-Benzyl-3-(5-chloro-pyrimidin-2-yl)-4-methyl-5-(trifluoromethyl)-1H-pyrrole-2-carbonyl]-piperazin-2-one] | 40 to 75
COc1cc(C)c(-c2c(C)c(C(F)(F)F)n(Cc3ccccc3)c2C(=O)N(C)CC(C)(C)C)cn1 [Example 21, 1-Benzyl-N-(2,2-dimethyl-propyl)-3-(6-methoxy-4-methyl-pyridin-3-yl)-N,4-dimethyl-5-(trifluoromethyl)-1H-pyrrole-2-carboxylic acid amide] | 75 to 95
Cc1cc(C#N)ncc1-c1c(C)c(C(F)(F)F)n(Cc2ccccc2)c1C(=O)N(C)CC(C)(C)C [Example 19, 1-Benzyl-3-(6-cyano-4-methylpyridin-3-yl)-N,4-dimethyl-N-neopentyl-5-(trifluoromethyl)-1H-pyrrole-2-carboxamide] | 75 to 95
Cc1c(-c2ccc(Cl)nn2)c(C(=O)N(C)CC(C)(C)C)n(Cc2ccccc2)c1C(F)(F)F [Example 22, 1-Benzyl-3-(6-chloro-pyridazin-3-yl)-N-(2,2-dimethyl-propyl)-N,4-dimethyl-5-(trifluoromethyl)-1H-pyrrole-2-carboxylic acid amide] | > 95
Cc1c(-c2ccnnc2)c(C(=O)N(C)CC(C)(C)C)n(Cc2ccccc2)c1C(F)(F)F [Example 32, 1-Benzyl-N,4-dimethyl-N-neopentyl-3-(pyridazin-4-yl)-5-(trifluoromethyl)-1H-pyrrole-2-carboxamide] | 75 to 95
Cc1noc(C)c1-c1c(C)c(C(F)(F)F)n(Cc2ccccc2)c1C(=O)N1CCOCC1 [Example 23, [1-Benzyl-3-(3,5-dimethyl-isoxazol-4-yl)-4-methyl-5-(trifluoromethyl)-1H-pyrrol-2-yl]-morpholin-4-yl-methanone] | 75 to 95
Cc1c(-c2ccc(O)nc2)c(C(=O)N(C)CC(C)(C)C)n(Cc2ccccc2)c1C(F)(F)F [Example 03, 1-Benzyl-3-(6-hydroxypyridin-3-yl)-N,4-dimethyl-N-neopentyl-5-(trifluoromethyl)-1H-pyrrole-2-carboxamide] | 40 to 75
Cc1c(-c2ncc(Cl)cn2)c(C(=O)N(C)CC(C)(C)C#N)n(Cc2ccccc2)c1C(F)(F)F [Example 49, 1-Benzyl-3-(5-chloro-pyrimidin-2-yl)-N-(2-cyano-2-methyl-propyl)-N,4-dimethyl-5-(trifluoromethyl)-1H-pyrrole-2-carboxylic acid amide] | > 95
Cc1cc(C#N)ncc1-c1c(C)c(C(F)(F)F)n(Cc2ccccc2)c1C(=O)N1CCOCC1 [Example 26, 5-[1-Benzyl-4-methyl-2-(morpholine-4-carbonyl)-5-(trifluoromethyl)-1H-pyrrol-3-yl]-4-methyl-pyridine-2-carbonitrile] | 75 to 95
Cc1c(-c2ccc(Cl)cn2)c(C(=O)N2CCOCC2)n(Cc2ccccc2)c1C(F)(F)F [Example 42, [1-Benzyl-3-(5-chloro-pyridin-2-yl)-4-methyl-5-(trifluoromethyl)-1H-pyrrol-2-yl]-morpholin-4-yl-methanone] | > 95
Cc1c(-c2ncccn2)c(C(=O)N(C)CC(C)(C)C)n(Cc2ccccc2)c1C(F)(F)F [Example 35, 1-Benzyl-N,4-dimethyl-N-neopentyl-3-(pyrimidin-2-yl)-5-(trifluoromethyl)-1H-pyrrole-2-carboxamide] | 75 to 95
Cc1c(-c2ccc(Cl)cn2)c(C(=O)N(C)C(C)C)n(Cc2ccccc2)c1C(F)(F)F [Example 50, 1-Benzyl-3-(5-chloro-pyridin-2-yl)-N-isopropyl-N,4-dimethyl-5-(trifluoromethyl)-1H-pyrrole-2-carboxylic acid amide] | > 95
COc1cnc(-c2c(C)c(C(F)(F)F)n(Cc3ccccc3)c2C(=O)N2CCOCC2)cn1 [Example 05, (1-Benzyl-3-(5-methoxypyrazin-2-yl)-4-methyl-5-(trifluoromethyl)-1H-pyrrol-2-yl)(morpholino)methanone] | 40 to 75
Cc1c(-c2ncc(C3CC3)cn2)c(C(=O)N(C)C(C)C)n(Cc2ccccc2)c1C(F)(F)F [Example 56, 1-Benzyl-3-(5-cyclopropyl-pyrimidin-2-yl)-N-isopropyl-N,4-dimethyl-5-(trifluoromethyl)-1H-pyrrole-2-carboxylic acid amide] | > 95
Cc1cc(Cl)ncc1-c1c(C)c(C(F)(F)F)n(Cc2ccccc2)c1C(=O)N(C)CC(C)(C)C [Example 20, 1-Benzyl-3-(6-chloro-4-methyl-pyridin-3-yl)-N-(2,2-dimethyl-propyl)-N,4-dimethyl-5-(trifluoromethyl)-1H-pyrrole-2-carboxylic acid amide] | 75 to 95
Cc1c(-c2ncc(Cl)cn2)c(C(=O)N(C)C(C)C)n(Cc2ccccc2)c1C(F)(F)F [Example 54, 1-Benzyl-3-(5-chloro-pyrimidin-2-yl)-N-isopropyl-N,4-dimethyl-5-(trifluoromethyl)-1H-pyrrole-2-carboxylic acid amide] | > 95
Cc1c(-c2ncc(Cl)cn2)c(C(=O)NC2CC2)n(Cc2ccccc2)c1C(F)(F)F [Example 46, 1-Benzyl-3-(5-chloro-pyrimidin-2-yl)-N-cyclopropyl-4-methyl-5-(trifluoromethyl)-1H-pyrrole-2-carboxylic acid amide] | 40 to 75
Cc1c(-c2ncc(C(F)(F)F)cc2F)c(C(=O)N2CCOCC2)n(Cc2ccccc2)c1C(F)(F)F [Example 24, [1-Benzyl-3-[3-fluoro-5-(trifluoromethyl)-pyridin-2-yl]-4-methyl-5-(trifluoromethyl)-1H-pyrrol-2-yl]-morpholin-4-yl-methanone] | > 95
Cc1c(-c2ccnnc2)c(C(=O)N2CCOCC2)n(Cc2ccccc2)c1C(F)(F)F [Example 37, (1-Benzyl-4-methyl-3-(pyridazin-4-yl)-5-(trifluoromethyl)-1H-pyrrol-2-yl)(morpholino)methanone] | 40 to 75
Cc1c(-c2ncc(Cl)cn2)c(C(=O)N2CCOC(C)(C)C2)n(Cc2ccccc2)c1C(F)(F)F [Example 45, [1-Benzyl-3-(5-chloro-pyrimidin-2-yl)-4-methyl-5-(trifluoromethyl)-1H-pyrrol-2-yl]-(2,2-dimethyl-morpholin-4-yl)-methanone] | > 95
COc1ncc(-c2c(C)c(C(F)(F)F)n(Cc3ccccc3)c2C(=O)N(C)CC(C)(C)C)cn1 [Example 12, 1-Benzyl-N-(2,2-dimethyl-propyl)-3-(2-methoxy-pyrimidin-5-yl)-N,4-dimethyl-5-(trifluoromethyl)-1H-pyrrole-2-carboxylic acid amide] | 75 to 95
